Laboratory results reported in patent publication US10406383B2, “Apparatus for treatment of dermatological conditions” (CAREWEAR CORP., priority 2004, dated 2019).
Marks after values point to notes of the source that are not given here.

How the values were obtained:
[1] = tested on: fibrillin-rich microfibrils proximal to the dermal-epidermal junction (DEJ); experiment: Seven-day patch test, fibrillin-1 immunohistochemistry; assay type: in vivo, human; conditions: patch test under occlusion
From the text: (§1) The standard four-day patch test assay was extended to a seven-day period to examine the effect of the Topical 1 formulation under occlusion or delivered by ultrasound on the induction of fibrillin expression as a mechanism by which clinical signs of photoageing may be improved.
Fibrillin is a major constituent of the elastin network in the papillary dermis and plays an important role in securing the epidermis to the underlying dermis. Topical application of all-trans retinoic acid (t-RA) as a positive control ameliorates the clinical signs of photoageing.
(§2) Six healthy but photoaged female volunteers were recruited (age range 52-79 years). […]
(§3) A number of extracellular matrix (ECM) molecules known to be reduced in photoaged skin were assayed by immunohistochemistry to detail the potential effects of the Topical 1 formulation and its method of delivery. […] Also assessed were the number of epidermal keratinocytes expressing MMP-1 and RARα. […]
Sections were randomised, blinded and examined on a Nikon OPTIPHOT microscope (Tokyo, Japan). For assessment of ECM components, the degree of immunostaining was assessed on a 5 point semi-quantitative scale where 0=no staining and 4=maximal staining. […] The degree of immunostaining was scored for three high power fields per section, and the average score calculated for each site/test area. […]

[2] = tested on: HSP72 expression in the epidermis; experiment: Seven-day patch test, HSP72 immunohistochemistry; assay type: in vivo, human; conditions: patch test under occlusion
From the text: as §1
(§4) Ageing can also be monitored by examination of other molecules within the skin. Previous work has identified alterations in the expression of the enzyme matrix metalloproteinase 1 (MMP-1; essential for extracellular matrix remodelling)^3 and in the nuclear retinoid receptor retinoic acid receptor α (RARα; necessary for modulating the effects of vitamin A and its derivatives)^4. Two molecular chaperones were assessed to identify pathways for eliminating abnormal proteins; these were heat shock protein-72 (HSP72)^5 and the extracellular chaperone, clusterin^6.
as §2, §3
(§5) For cell-associated staining, the numbers of positive epidermal keratinocytes were assessed per high powered field, and the average score calculated for each site/test area. […]

[3] = Erythema and skin tolerability observations during the trial; assay type: in vivo, human; conditions: patch test protocol
Procedure: Six healthy but photoaged female volunteers were recruited (age range 52-79 years). Test substances were applied separately under standard 6 mm diameter Finn chambers to the extensor aspect of the forearm: these were Topical 1 formulation (20 μl/chamber), vehicle base (20 μl/chamber) and 0.025% all-trans RA (Retin-A® cream, Janssen-Cilag Ltd., 20 μl/chamber). In addition, a baseline untreated biopsy was taken as a reference point. Formulations were applied to clean skin on days 1 and 4 of the assay. All-trans RA was applied to an untreated site on day 4. On day 8, Finn chambers were removed and 3 mm punch biopsies were obtained under 1% lignocaine anaesthesia from each of the test site. Biopsies were embedded in OCT compound (Tissue-Tek®, Miles, Ind., USA) and snap frozen in liquid nitrogen. Biopsy sites were sutured with 1×4/o ethilon and subjects instructed to return between 7-10 days for suture removal.
Ten healthy but photoaged volunteers were recruited (men: 2; female: 8; age range 40-79 years). Topical 1 formulation was applied to extensor forearms alone and with the aid of an ultrasound device (Duo Son™ unit, Orthosonics, Devon UK). Low frequency (45 kHz, 100 mW/cm^2, continuous) and high frequency (1 MHz, 1 W/cm^2 pulsed average, pulsed 20% cycle) were applied simultaneously for a period of ten minutes, during which time the ultrasound delivery head was moved over the skin. […]

[4] = tested on: RARα expression in epidermal keratinocytes; experiment: Seven-day patch test, RARα immunohistochemistry; assay type: in vivo, human; conditions: patch test under occlusion
From the text: as §1, §4, §2, §3, §5

[5] = tested on: MMP-1 expression in epidermal keratinocytes; experiment: Seven-day patch test, MMP-1 immunohistochemistry; assay type: in vivo, human; conditions: patch test under occlusion
From the text: as §1, §4, §2, §3, §5

HSP70 mRNA = conditions: rats, aspirin 100 mg/kg intraperitoneally 60 min before 37° C. for 30 min; cited from earlier work
[6] = positive epidermal keratinocytes per high powered field

Structure (SMILES): CC1=C(/C=C/C(C)=C/C=C/C(C)=C/C(=O)O)C(C)(C)CCC1 [All-trans RA, all-trans retinoic acid]
- Fibrillin-1 staining Mean ([1]; photoaged forearm, biopsy day 8, 5 point scale 0=no staining, 4=maximal staining, p > 0.05): 1.8241
- volunteers with fibrillin-1 deposition proximal to the DEJ ([1]; six volunteers): 3/6
- effect on expression of epidermal HSP72 ([2]; result in words): significantly increased the expression of epidermal HSP72
- HSP72 staining Mean [2, 6]: 77.03**
- Erythema at the site of application [3]: marked erythema
- effect on RARα expression in epidermal keratinocytes ([4]; result in words): significantly reduced RARα expression in epidermal keratinocytes
- RARα staining Mean [4, 6]: 6.0463
- effect on MMP-1 expression in epidermal keratinocytes ([5]; result in words): reduced MMP-1 expression in epidermal keratinocytes, although this did not reach significance
- MMP-1 staining Mean ([5]; positive epidermal keratinocytes per high powered field, p > 0.05): 5.3333

Structure (SMILES): CC(=O)Oc1ccccc1C(=O)O [aspirin, acetylsalicyclic acid]
- levels of HSP70 mRNA relative to heat treatment alone (HSP70 mRNA): 3 to 4 fold
